In patent US12421235B2, “Bridged tricyclic carbamoylpyridone compounds and uses thereof” (Gilead Sciences, Inc., priority 2020, dated 2025):

Tests used:
[1] = tested on: HIV-1 (IIIB) in MT-4 cells; experiment: HIV MT-4 antiviral assay; format: cell-based; conditions: Human immunodeficiency virus 1, MT4, 120 h, 5 days, Cell Titer Glo
Experimental: Example 47: HIV MT-4 Antiviral and Cytotoxicity Assay
Antiviral Assay in MT-4 Cells
(§1) Compounds were tested in a high-throughput 384-well assay format for their ability to inhibit the replication of HIV-1 (IIIB) in MT-4 cells. Compounds were serially diluted (1:3) in DMSO on 384-well polypropylene plates and further diluted 200-fold into complete RPMI media (10% FBS, 1% P/S) using the Biotek Micro Flow and Labcyte ECHO acoustic dispenser. Each plate contained up to 8 test compounds, with negative (No Drug Control) and 5 μM AZT positive controls. MT-4 cells were pre-infected with 10 μL of either RPMI (mock-infected) or a fresh 1:250 dilution of HIV-1 IIIB concentrated virus stock. Infected and uninfected MT-4 cells were further diluted in complete RPMI media and added to each plate using a Micro Flow dispenser. After 5 days incubation in a humidified and temperature controlled incubator (37° C.), Cell Titer Glo (Promega) was added to the assay plates and chemiluminescence read using an Envision plate-reader. EC50 values were defined as the compound concentration that causes a 50% decrease in luminescence signal, and were calculated using a sigmoidal dose-response model to generate curve fits.

[2] = tested on: pLai RLuc reporter virus in MT-4 cells; experiment: HIV MT-4 serum shift antiviral reporter assay; format: cell-based; conditions: Human immunodeficiency virus 1, MT4, 72 h, read-out: RLUC CCM
Experimental: Example 48: HIV MT-4 Serum Shift Antiviral Reporter Assay
To quantify the amount of protein binding to human serum, compounds were serially diluted (1:3) in DMSO and acoustically transferred onto 384-well assay plates via a Labcyte ECHO robot. Each plate contained up to 8 test compounds, including negative and positive controls, (DMSO, 5 μM AZT respectively). Assay plates were prepared in duplicate, and tested in either CCM (cell culture media) or HS/CCM (human serum/cell culture media). MT-4 cells were first pre-infected with pLai RLuc reporter virus for 2 h at 37° C., then further diluted in either CCM (RPMI media, 10% FBS, 1% P/S) or HS/CCM (RPMI media, 10% FBS, 50% HS, 1% P/S), and subsequently added to each plate using a Biotek Micro Flow dispenser. After a 72-h incubation in a humidified and temperature controlled incubator (37° C.), Renilla Glo (Promega) was added to all assay plates and chemiluminescence read using an Envision plate-reader. EC50 values were defined as the compound concentration that causes a 50% decrease in luminescence signal, and were calculated using a sigmoidal dose-response model to generate curve fits. To determine the amount of protein binding, EC50 fold shifts (or EC50 shifts) were calculated by dividing EC50 (HS/CCM)/EC50 (CCM). […]

[3] = Cytotoxicity assay in MT-4 cells; format: cell-based; conditions: human, uninfected MT-4 cells, Cell Titer Glo
Experimental: as §1, with “fits. Cytotoxicity Assay in MT-4 Cells Assays were performed as above except uninfected MT-4 cells were added to each well containing test compound. In addition, 10 μM puromycin was added to the last column of each assay plate to assess a base level of cytotoxicity.” for “fits.”

[4] = High throughput microsomal stability assay (human liver microsomes); format: in vitro ADME; conditions: human liver microsomes, 1 uM compound, NADPH + UDPGA cofactors, 37 C
Experimental: Example 49: High Throughput Microsomal Stability Assay
Metabolic stability of compounds was assessed using Human, or Rat Liver Microsomal assays (Corning). In this assay, 10 nL compounds at concentration of 1 mM in 100% DMSO were dispensed into 384-well polypropylene plates using the Echo 550 acoustic liquid dispenser (Labcyte®). Each plate contained 384 wells with a single test compound in each well.
A solution of human (Corning® Gentest™ Human Mixed Pooled Microsomes), or rat (Corning® Gentest™ Rat [Sprague-Dawley] Pooled Liver Microsomes) liver microsomes at 2 mg/ml in 100 mM K2HPO4/KH2PO4 pH 7.4 with Alamethicin from Trichoderma viride (Sigma-Aldrich) 0.0225 mg/ml were incubated on ice for 15 minutes. 5 uL of this solution was added to individual wells following 15 minute incubation at room temperature; and supplemented with 5 uL NADPH Regenerating Solution of cofactors (Corning® Gentest™ UGT Reaction Mix) containing 100 mM K2HPO4/KH2PO4 pH 7.4, 2.6 mM NADP+, 6.6 mM glucose-6-phosphate, 6.6 mM MgCl2, 0.8 U/mL glucose-6-phosphate dehydrogenase, 0.1 mM Sodium Citrate, 6.8 mM uridine diphosphate-glucuronic acid. Final concentration of analyte compounds at the beginning of the reaction was 1 uM. The reactions were incubated at 37° C. and time points of 0, 5, 15, 30, 40, 50, 60, and 70 minutes were collected for further analysis. Background data were collected using reactions without analyte compounds.
Upon collection of the reaction time points, samples were quenched with 30 uL of a solution of 72% acetonitrile, 8% methanol, 0.1% formic acid, 19.9% water, and internal standard (IS). Reaction plates were span in a centrifuge at speed of 4,000 rcf for 30 minutes and 4° C., following a dilution of the 10 uL quenched reaction into 40 uL de-ionized water, yielding assay plates.
Assay plates were analyzed using solid-state extraction coupled with quadrupole time-of-flight mass spectrometer, using Agilent QToF 6530 RapidFire 360 system, with C4 type A solid state cartridges. Analysis was performed in either positive or negative ionization modes. Mobile phases contained 0.1% formic acid in water for loading analytes onto solid state extraction cartridges, and 0.1% formic acid in acetonitrile for elution into mass spectrometer in positive ionization mode, or 0.1% acetic acid in water for loading and 0.1% acetic acid in acetonitrile for extraction in negative ionization mode. Peak-area ratios of integrated counts for individual compounds to IS were plotted as semi-logarithmic chart of log vs time. Initial, linear portion of decay was fitted to a linear regression equation to derive half time of a compound decay.
Pharmacological parameters for an analyte compound metabolism were calculated using the following equations: […]
Where. Calculation of In Vitro Intrinsic Clearance
Concentration refers to the protein concentration (mg/mL) in the reaction.
Calculation of In Vivo Intrinsic Clearance
This scales the in vitro intrinsic clearance up to the value that would be predicted for the entire mass of liver tissue (but with no restriction by blood flow). The value depends upon the size of the liver (species-dependent) and the yield of microsomal protein as appropriate (assumed to be species-independent).
Calculation of Predicted Clearance
Hepatic clearance will depend upon the inter-relationship of intrinsic clearance and hepatic blood flow and can be predicted from in vitro data using a variety of approaches.
Calculation of Hepatic Extraction
This is simply the predicted clearance expressed as a proportion of hepatic blood flow. E=CL/QH*100%
Intrinsic clearance of the instant compounds, as well as for reference compounds A-F, were calculated following the procedure above.

SMILES	EC50 [1] [nM]	EC50 [2] [nM]	CC50 at 5 days [3] [nM]	HLM stability [4] [mL/min/kg]
C[C@H]1C=C[C@](C)(O)[C@H]2CN1C(=O)c1c(O)c(=O)c(C(=O)NCc3c(F)cc(F)cc3F)cn12 [Example 15, (1R,10S,13S)-6,13-dihydroxy-10,13-dimethyl-5,8-dioxo-N-[(2,4,6-trifluorophenyl)methyl]-2,9-diazatricyclo[7.4.1.02,7]tetradeca-3,6,11-triene-4-carboxamide]	7.9	1.64	28400	3.17
C[C@H]1CC[C@H](O)[C@H]2CN1C(=O)c1c(O)c(=O)c(C(=O)NCc3ccc(F)cc3F)cn12 [Example 16, (3S,6S,7R)—N-(2,4-difluorobenzyl)-6,12-dihydroxy-3-methyl-1,11-dioxo-1,4,5,6,7,11-hexahydro-3H-2,7-methanopyrido[1,2-a][1,4]diazonine-10-carboxamide]	2.6	1.14	41400	1.83
C[C@H]1C=C[C@](C)(O)[C@H]2CN1C(=O)c1c(O)c(=O)c(C(=O)NCc3ccc(F)cc3F)cn12 [Example 17, (1R,10S,13S)—N-[(2,4-difluorophenyl)methyl]-6,13-dihydroxy-10,13-dimethyl-5,8-dioxo-2,9-diazatricyclo[7.4.1.02,7]tetradeca-3,6,11-triene-4-carboxamide]	3	1.33	31400	2.83
CO[C@H]1C=C[C@H](C)N2C[C@H]1n1cc(C(=O)NCc3c(F)cc(F)cc3F)c(=O)c(O)c1C2=O [Example 18, (3S,6S,7R)-12-hydroxy-6-methoxy-3-methyl-1,11-dioxo-N-(2,4,6-trifluorobenzyl)-1,6,7,11-tetrahydro-3H-2,7-methanopyrido[1,2-a][1,4]diazonine-10-carboxamide]	1.4	0.55	13400	12.2
CO[C@H]1C=C[C@H](C)N2C[C@H]1n1cc(C(=O)NCc3ccc(F)cc3F)c(=O)c(O)c1C2=O [Example 19, (3S,6S,7R)—N-(2,4-difluorobenzyl)-12-hydroxy-6-methoxy-3-methyl-1,11-dioxo-1,6,7,11-tetrahydro-3H-2,7-methanopyrido[1,2-a][1,4]diazonine-10-carboxamide]	1.1	0.38	20000	7.83
[2H][C@]1(OC)C=C[C@H](C)N2C[C@H]1n1cc(C(=O)NCc3ccc(F)cc3F)c(=O)c(O)c1C2=O [Example 21, (3S,6S,7R)—N-(2,4-difluorobenzyl)-12-hydroxy-6-methoxy-3-methyl-1,11-dioxo-1,6,7,11-tetrahydro-3H-2,7-methanopyrido[1,2-a][1,4]diazonine-6-d-10-carboxamide]	1.8	0.52	19300	6.17
CO[C@@]1(C)CC[C@H](C)N2C[C@H]1n1cc(C(=O)NCc3c(F)cc(F)cc3F)c(=O)c(O)c1C2=O [Example 23, (3S,6S,7R)-12-hydroxy-6-methoxy-3,6-dimethyl-1,11-dioxo-N-(2,4,6-trifluorobenzyl)-1,4,5,6,7,11-hexahydro-3H-2,7-methanopyrido[1,2-a][1,4]diazonine-10-carboxamide]	2.2	0.47	9790	12
CCO[C@H]1C=C[C@H](C)N2C[C@H]1n1cc(C(=O)NCc3c(F)cc(F)cc3F)c(=O)c(O)c1C2=O [Example 25, (3S,6S,7R)-6-ethoxy-12-hydroxy-3-methyl-1,11-dioxo-N-(2,4,6-trifluorobenzyl)-1,6,7,11-tetrahydro-3H-2,7-methanopyrido[1,2-a][1,4]diazonine-10-carboxamide]	4.1	0.82	43700	9.67
CCO[C@H]1CC[C@H](C)N2C[C@H]1n1cc(C(=O)NCc3c(F)cc(F)cc3F)c(=O)c(O)c1C2=O [Example 26, (3S,6S,7R)-6-ethoxy-12-hydroxy-3-methyl-1,11-dioxo-N-(2,4,6-trifluorobenzyl)-1,4,5,6,7,11-hexahydro-3H-2,7-methanopyrido[1,2-a][1,4]diazonine-10-carboxamide]	4.4	0.92	44300	3.67
C[C@H]1CC[C@H](OC(F)F)[C@H]2CN1C(=O)c1c(O)c(=O)c(C(=O)NCc3c(F)cc(F)cc3F)cn12 [Example 27, (3S,6S,7R)-6-(difluoromethoxy)-12-hydroxy-3-methyl-1,11-dioxo-N-(2,4,6-trifluorobenzyl)-1,4,5,6,7,11-hexahydro-3H-2,7-methanopyrido[1,2-a][1,4]diazonine-10-carboxamide]	1.1	0.35	13600	14.7
